Assay results taken from ChEMBL document CHEMBL1124625, “Flavones. 2. Synthesis and structure-activity relationship of flavodilol and its analogues, a novel class of antihypertensive agents with catecholamine depleting properties” (J Med Chem, 1989).

What was measured:
Rattus norvegicus [1] = assay: % decrease in hypothalamus DA in anesthetized spontaneously hypertensive rats(SHR) at 5 hours after administration of 150 mg/kg dose perorally; settings: route oral
Rattus norvegicus [2] = assay: % decrease in heart norepinephrine in anesthetized spontaneously hypertensive rats(SHR) at 5 hours after administration of 75 mg/kg dose perorally; format: functional; settings: route oral
Rattus norvegicus [3] = assay: % decrease in systolic blood pressure (SBP) in anesthetized spontaneously hypertensive rats(SHR) after administration of 150 mg/kg dose perorally; settings: route oral
Rattus norvegicus [4] = assay: % decrease in hypothalamus norepinephrine in anesthetized spontaneously hypertensive rats(SHR) at 5 hours after administration of 75 mg/kg dose perorally; format: functional; settings: route oral
Rattus norvegicus [5] = assay: Systolic blood pressure (SBP) in anesthetized spontaneously hypertensive rats(SHR) at 7.5 hours after administration of 75 mg/kg dose perorally; NS is not statistically significant.
Rattus norvegicus [6] = assay: Systolic blood pressure (SBP) in anesthetized spontaneously hypertensive rats (SHR) before administration of 75 mg/kg dose perorally.; format: functional; parameters: unit: mmHg; settings: route oral
Rattus norvegicus [7] = assay: % decrease in systolic blood pressure (SBP) in anesthetized spontaneously hypertensive rats(SHR) after administration of 75 mg/kg dose perorally; settings: route oral
Rattus norvegicus [8] = assay: % decrease in hypothalamus norepinephrine in anesthetized spontaneously hypertensive rats(SHR) at 5 hours after administration of 150 mg/kg dose perorally; format: functional; settings: route oral
Rattus norvegicus [9] = assay: % decrease in heart 5-HT in anesthetized spontaneously hypertensive rats(SHR) at 5 hours after administration of 150 mg/kg dose perorally; format: functional; settings: route oral
Rattus norvegicus [10] = assay: % decrease in heart 5-HT in anesthetized spontaneously hypertensive rats(SHR) at 5 hours after administration of 75 mg/kg dose perorally; format: functional; settings: route oral
Rattus norvegicus [11] = assay: % decrease in heart norepinephrine in anesthetized spontaneously hypertensive rats(SHR) at 5 hours after administration of 150 mg/kg dose perorally; format: functional; settings: route oral
Rattus norvegicus [12] = assay: % decrease in hypothalamus DA in anesthetized spontaneously hypertensive rats(SHR) at 5 hours after administration of 75 mg/kg dose perorally; *value significantly different was control.; settings: route oral
Rattus norvegicus [13] = assay: % decrease in hypothalamus dopamine in anesthetized spontaneously hypertensive rats(SHR) at 5 hours after administration of 17.5 mg/kg dose perorally; format: functional; settings: route oral
Rattus norvegicus [14] = assay: % decrease in systolic blood pressure (SBP) in anesthetized spontaneously hypertensive rats(SHR) after administration of 17.5 mg/kg dose perorally; data statistically significant; settings: route oral
Rattus norvegicus [15] = assay: % decrease in heart norepinephrine in anesthetized spontaneously hypertensive rats(SHR) at 5 hours after administration of 35 mg/kg dose perorally; format: functional; settings: route oral
Rattus norvegicus [16] = assay: % decrease in heart 5-HT in anesthetized spontaneously hypertensive rats(SHR) at 5 hours after administration of 8 mg/kg dose perorally; format: functional; settings: route oral
Rattus norvegicus [17] = assay: % decrease in hypothalamus norepinephrine in anesthetized spontaneously hypertensive rats(SHR) at 5 hours after administration of 4 mg/kg dose perorally; format: functional; settings: route oral
Rattus norvegicus [18] = assay: % decrease in hypothalamus dopamine in anesthetized spontaneously hypertensive rats(SHR) at 5 hours after administration of 4 mg/kg dose perorally; format: functional; settings: route oral
Rattus norvegicus [19] = assay: % decrease in hypothalamus norepinephrine in anesthetized spontaneously hypertensive rats(SHR) at 5 hours after administration of 8 mg/kg dose perorally; format: functional; settings: route oral
Rattus norvegicus [20] = assay: % decrease in heart 5-HT in anesthetized spontaneously hypertensive rats(SHR) at 5 hours after administration of 17.5 mg/kg dose perorally; value significantly different was control; format: functional; settings: route oral
Rattus norvegicus [21] = assay: % decrease in heart 5-HT in anesthetized spontaneously hypertensive rats(SHR) at 5 hours after administration of 4 mg/kg dose perorally; format: functional; settings: route oral
Rattus norvegicus [22] = assay: % decrease in hypothalamus norepinephrine in anesthetized spontaneously hypertensive rats(SHR) at 5 hours after administration of 17.5 mg/kg dose perorally; format: functional; settings: route oral
Rattus norvegicus [23] = assay: Systolic blood pressure (SBP) in anesthetized spontaneously hypertensive rats(SHR) at 7.5 hours after administration of 75 mg/kg dose perorally; settings: route oral
Rattus norvegicus [24] = assay: % decrease in hypothalamus dopamine in anesthetized spontaneously hypertensive rats(SHR) at 5 hours after administration of 75 mg/kg dose perorally; format: functional; settings: route oral
Rattus norvegicus [25] = assay: % decrease in hypothalamus DA in anesthetized spontaneously hypertensive rats(SHR) at 5 hours after administration of 35 mg/kg dose perorally; settings: route oral
Rattus norvegicus [26] = assay: Systolic blood pressure (SBP) in anesthetized spontaneously hypertensive rats(SHR) before administration of 35 mg/kg dose perorally; format: functional; settings: route oral
Rattus norvegicus [27] = assay: Systolic blood pressure (SBP) in anesthetized spontaneously hypertensive rats(SHR) before administration of 17 mg/kg dose, perorally; format: functional; settings: route oral
Rattus norvegicus [28] = assay: % decrease in heart 5-HT in anesthetized spontaneously hypertensive rats(SHR) at 5 hours after administration of 35 mg/kg dose perorally; value significantly different was control; format: functional; settings: route oral
Rattus norvegicus [29] = assay: Systolic blood pressure (SBP) in anesthetized spontaneously hypertensive rats(SHR) at 7.5 hours after administration of 35 mg/kg dose perorally; format: functional; settings: route oral
Rattus norvegicus [30] = assay: % decrease in hypothalamus dopamine in anesthetized spontaneously hypertensive rats(SHR) at 5 hours after administration of 8 mg/kg dose perorally; format: functional; settings: route oral
Rattus norvegicus [31] = assay: % decrease in hypothalamus norepinephrine in anesthetized spontaneously hypertensive rats(SHR) at 5 hours after administration of 35 mg/kg dose perorally; format: functional; settings: route oral
Rattus norvegicus [32] = assay: % decrease in systolic blood pressure (SBP) in anesthetized spontaneously hypertensive rats(SHR) after administration of 8 mg/kg dose perorally; settings: route oral
Rattus norvegicus [33] = assay: % decrease in heart norepinephrine in anesthetized spontaneously hypertensive rats(SHR) at 5 hours after administration of 4 mg/kg dose perorally; format: functional; settings: route oral
Rattus norvegicus [34] = assay: % decrease in heart 5-HT in anesthetized spontaneously hypertensive rats(SHR) at 5 hours after administration of 75 mg/kg dose perorally; value significantly different was control; format: functional; settings: route oral
Rattus norvegicus [35] = assay: Systolic blood pressure (SBP) in anesthetized spontaneously hypertensive rats(SHR) at 7.5 hours after administration of 17 mg/kg dose, perorally; format: functional; settings: route oral
Rattus norvegicus [36] = assay: % decrease in heart norepinephrine in anesthetized spontaneously hypertensive rats(SHR) at 5 hours after administration of 8 mg/kg dose perorally; format: functional; settings: route oral
Rattus norvegicus [37] = assay: % decrease in heart norepinephrine in anesthetized spontaneously hypertensive rats(SHR) at 5 hours after administration of 17.5 mg/kg dose perorally; format: functional; settings: route oral
Adrenergic receptor beta = Adrenergic receptor beta (Rattus norvegicus, UniProt P18090+P10608+P26255)
Description: Inhibition constant from beta adrenergic receptor binding assay

Rattus norvegicus [38] = assay: % decrease in systolic blood pressure (SBP) in anesthetized spontaneously hypertensive rats(SHR) after administration of 4 mg/kg dose perorally; settings: route oral

CN(C)CC(O)COc1ccc2c(=O)cc(-c3ccccc3)oc2c1 (stereo not drawn)
% decrease hypothalamus DA (Rattus norvegicus [1]): 47%
Decrease (Rattus norvegicus [2]): 18%
% decrease SBP (Rattus norvegicus [3]): 5%
Decrease (Rattus norvegicus [4]): 20%
Decrease in Systolic blood pressure (Rattus norvegicus [5]): Not significant
Systolic blood pressure (Rattus norvegicus [6]): 207
% decrease SBP (Rattus norvegicus [7]): 0%
Decrease (Rattus norvegicus [8]): 37%
Decrease (Rattus norvegicus [9]): 0%
Decrease (Rattus norvegicus [10]): 0%
Decrease (Rattus norvegicus [11]): 7%
% decrease hypothalamus DA (Rattus norvegicus [12]): 29%

CCCNCC(O)COc1ccc2c(=O)cc(-c3ccccc3)oc2c1 (stereo not drawn) [FLAVODILOL]
Decrease (Rattus norvegicus [13]): 31%
% decrease SBP (Rattus norvegicus [14]): 6%
Decrease in heart norepinephrine (Rattus norvegicus [15]): 89%
Decrease (Rattus norvegicus [16]): 11%
Decrease in hypothalamus norepinephrine (Rattus norvegicus [17]): 2%
Decrease in heart norepinephrine (Rattus norvegicus [2]): 94%
Decrease (Rattus norvegicus [18]): 4%
Decrease in hypothalamus norepinephrine (Rattus norvegicus [4]): 15%
Decrease in hypothalamus norepinephrine (Rattus norvegicus [19]): 0%
Decrease (Rattus norvegicus [20]): 49%
Decrease (Rattus norvegicus [21]): -10%
Decrease in hypothalamus norepinephrine (Rattus norvegicus [22]): 6%
Decrease in Systolic blood pressure (Rattus norvegicus [23]): 32%
Decrease (Rattus norvegicus [24]): 38%
% decrease hypothalamus DA (Rattus norvegicus [25]): 37%
Systolic blood pressure (Rattus norvegicus [26]): 196
Systolic blood pressure (Rattus norvegicus [27]): 199
Systolic blood pressure (Rattus norvegicus [6]): 203
Decrease (Rattus norvegicus [28]): 61%
% decrease SBP (Rattus norvegicus [7]): 31%
Decrease in Systolic blood pressure (Rattus norvegicus [29]): 27%
Decrease (Rattus norvegicus [30]): -6%
Decrease in hypothalamus norepinephrine (Rattus norvegicus [31]): 19%
% decrease SBP (Rattus norvegicus [32]): 3%
Decrease in heart norepinephrine (Rattus norvegicus [33]): 21%
Decrease (Rattus norvegicus [34]): 63%
Decrease in Systolic blood pressure (Rattus norvegicus [35]): 15%
Decrease in heart norepinephrine (Rattus norvegicus [36]): 38%
Decrease in heart norepinephrine (Rattus norvegicus [37]): 79%
Ki (Adrenergic receptor beta): 4 nM
% decrease SBP (Rattus norvegicus [38]): 7%
